Measurements taken from article PMC10882719 (Frontiers in Neuroscience, 2024).
Like-named read-outs stand apart in the source and are kept apart here.

Experiments:
Type in all cases: cell-based
168 GPCRs [1] = molecular target: T1, 168 GPCRs (Homo sapiens, UniProt P25105); settings: PTAFR
T1 construct: host or cells: PathHunter cell lines
Method: (§1) Studies were performed at Eurofins DiscoverX Corporation (Fremont, CA) using the GPCRmax assay according to the manufacturer’s protocols. […] Activity greater than 30% typically indicates agonist activity and inhibition greater than 50% indicates antagonist activity. This assay uses enzyme fragment complementation with […] as the functional reporter. When a GPCR is activated, […] is recruited and the reporter is detectable. GPCRmax offers a high-throughput screen of 168 GPCRs for agonist or antagonist activity. Briefly, PathHunter cell lines were propagated, seeded into 384-well microplates and incubated at 37°C. […] Microplates were read following signal generation with a PerkinElmer Envision™ instrument for chemiluminescent signal detection. Compound activity was analyzed using CBIS data analysis suite (ChemInnovation, CA) to determine raw values (RLU). For agonist mode assay, percentage activity was calculated using the following formula: % Activity =100% × (mean RLU of test sample - mean RLU of vehicle control) / (mean MAX control ligand - mean RLU of vehicle control). For antagonist mode assay, percentage inhibition was calculated using the following formula: % Inhibition =100% × (1 - (mean RLU of test sample - mean RLU of vehicle control) / (mean RLU of EC80 control - mean RLU of vehicle control)).

168 GPCRs [2] = molecular target: T2, 168 GPCRs (Homo sapiens, UniProt P32247)
T2 construct: host or cells: PathHunter cell lines
T2 sequence (P32247 1-399): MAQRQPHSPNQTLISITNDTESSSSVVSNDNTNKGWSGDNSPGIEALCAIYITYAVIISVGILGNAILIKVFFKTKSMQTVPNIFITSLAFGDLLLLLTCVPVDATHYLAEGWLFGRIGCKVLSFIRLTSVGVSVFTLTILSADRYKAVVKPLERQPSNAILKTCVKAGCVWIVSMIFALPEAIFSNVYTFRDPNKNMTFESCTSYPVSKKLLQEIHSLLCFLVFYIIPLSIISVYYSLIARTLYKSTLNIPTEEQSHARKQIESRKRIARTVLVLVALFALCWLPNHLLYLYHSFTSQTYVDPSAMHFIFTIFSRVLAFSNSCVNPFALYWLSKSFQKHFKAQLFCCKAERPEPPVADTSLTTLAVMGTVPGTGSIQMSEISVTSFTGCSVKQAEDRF
Method: as §1

168 GPCRs [3] = molecular target: T3, 168 GPCRs (Homo sapiens, UniProt P32302)
T3 construct: host or cells: PathHunter cell lines
T3 sequence (P32302 1-372): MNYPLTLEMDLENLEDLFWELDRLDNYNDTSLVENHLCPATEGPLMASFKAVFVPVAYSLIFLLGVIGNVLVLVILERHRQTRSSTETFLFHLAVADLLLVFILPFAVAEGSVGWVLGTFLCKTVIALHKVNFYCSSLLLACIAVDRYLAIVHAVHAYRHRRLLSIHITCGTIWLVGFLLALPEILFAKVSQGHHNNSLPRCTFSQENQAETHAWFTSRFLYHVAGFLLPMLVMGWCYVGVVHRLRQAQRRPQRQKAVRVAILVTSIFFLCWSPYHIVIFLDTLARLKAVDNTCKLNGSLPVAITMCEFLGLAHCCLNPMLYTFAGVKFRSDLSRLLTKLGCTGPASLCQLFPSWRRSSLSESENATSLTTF
Method: as §1

168 GPCRs [4] = molecular target: T4, 168 GPCRs (Homo sapiens, UniProt P43116); settings: PTGER2
T4 construct: host or cells: PathHunter cell lines
T4 sequence (P43116 whole entry): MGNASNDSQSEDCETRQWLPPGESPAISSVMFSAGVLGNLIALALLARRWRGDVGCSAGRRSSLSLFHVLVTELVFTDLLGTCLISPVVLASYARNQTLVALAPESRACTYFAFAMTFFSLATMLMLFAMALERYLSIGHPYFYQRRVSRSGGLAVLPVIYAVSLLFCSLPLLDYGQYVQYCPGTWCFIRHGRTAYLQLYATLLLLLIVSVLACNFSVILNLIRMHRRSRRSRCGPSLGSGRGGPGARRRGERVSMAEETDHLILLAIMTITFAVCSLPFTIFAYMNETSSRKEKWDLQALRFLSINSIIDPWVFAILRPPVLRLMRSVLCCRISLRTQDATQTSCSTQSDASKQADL
Method: as §1

168 GPCRs [5] = molecular target: T5, 168 GPCRs (Homo sapiens, UniProt P47900); settings: P2RY1
T5 construct: host or cells: PathHunter cell lines
T5 sequence (P47900 whole entry): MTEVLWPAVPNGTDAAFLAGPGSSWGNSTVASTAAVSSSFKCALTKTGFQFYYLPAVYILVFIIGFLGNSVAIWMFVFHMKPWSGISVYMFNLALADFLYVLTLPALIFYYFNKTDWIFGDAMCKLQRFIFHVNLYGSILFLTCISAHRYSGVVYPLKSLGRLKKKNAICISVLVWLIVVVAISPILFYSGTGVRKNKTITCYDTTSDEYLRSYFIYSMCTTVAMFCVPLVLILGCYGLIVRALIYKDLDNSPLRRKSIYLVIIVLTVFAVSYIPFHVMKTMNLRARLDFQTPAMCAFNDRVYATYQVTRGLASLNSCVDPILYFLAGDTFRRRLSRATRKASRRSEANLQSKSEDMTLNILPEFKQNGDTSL
Method: as §1

168 GPCRs [6] = molecular target: T6, 168 GPCRs (Homo sapiens, UniProt Q16581)
T6 construct: host or cells: PathHunter cell lines
T6 sequence (Q16581 1-482): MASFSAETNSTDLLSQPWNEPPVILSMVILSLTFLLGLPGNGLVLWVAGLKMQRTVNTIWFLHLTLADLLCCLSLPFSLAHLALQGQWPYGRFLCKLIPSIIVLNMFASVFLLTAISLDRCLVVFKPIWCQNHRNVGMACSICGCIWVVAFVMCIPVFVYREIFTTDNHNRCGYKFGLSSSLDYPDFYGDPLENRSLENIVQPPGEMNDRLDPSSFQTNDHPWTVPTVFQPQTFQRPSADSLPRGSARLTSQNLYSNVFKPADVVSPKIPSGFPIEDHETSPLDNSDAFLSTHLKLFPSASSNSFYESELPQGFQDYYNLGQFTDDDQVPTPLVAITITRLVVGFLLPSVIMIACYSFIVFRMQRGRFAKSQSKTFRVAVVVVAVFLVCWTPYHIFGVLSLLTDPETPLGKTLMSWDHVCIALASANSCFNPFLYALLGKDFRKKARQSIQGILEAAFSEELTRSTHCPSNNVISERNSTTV
Method: as §1

168 GPCRs [7] = molecular target: T7, 168 GPCRs (Homo sapiens, UniProt Q96RI0)
T7 construct: host or cells: PathHunter cell lines
T7 sequence (Q96RI0 18-385): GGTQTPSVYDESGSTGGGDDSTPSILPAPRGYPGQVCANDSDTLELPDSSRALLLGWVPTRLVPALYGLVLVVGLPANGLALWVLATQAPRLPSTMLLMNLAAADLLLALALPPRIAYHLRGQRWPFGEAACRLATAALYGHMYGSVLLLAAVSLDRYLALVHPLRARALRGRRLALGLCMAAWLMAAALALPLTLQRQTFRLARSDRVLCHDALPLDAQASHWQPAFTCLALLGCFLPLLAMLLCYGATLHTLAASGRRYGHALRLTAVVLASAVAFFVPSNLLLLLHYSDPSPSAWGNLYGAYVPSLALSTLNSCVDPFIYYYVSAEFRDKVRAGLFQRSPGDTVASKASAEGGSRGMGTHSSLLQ
Method: as §1

168 GPCRs [8] = molecular target: T8, 168 GPCRs (Homo sapiens, UniProt Q9H244); settings: P2RY12
T8 construct: host or cells: PathHunter cell lines
T8 sequence (Q9H244 whole entry): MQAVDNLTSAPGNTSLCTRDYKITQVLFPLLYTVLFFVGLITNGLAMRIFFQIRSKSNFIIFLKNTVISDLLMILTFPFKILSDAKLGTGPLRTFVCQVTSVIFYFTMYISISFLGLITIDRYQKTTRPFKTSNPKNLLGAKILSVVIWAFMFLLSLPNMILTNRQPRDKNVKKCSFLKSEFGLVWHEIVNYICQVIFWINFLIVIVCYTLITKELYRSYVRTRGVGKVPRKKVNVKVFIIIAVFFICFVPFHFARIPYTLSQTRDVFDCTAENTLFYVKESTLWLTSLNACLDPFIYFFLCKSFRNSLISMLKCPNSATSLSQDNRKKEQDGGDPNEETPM
Method: as §1

T1 sequence (P25105 whole entry): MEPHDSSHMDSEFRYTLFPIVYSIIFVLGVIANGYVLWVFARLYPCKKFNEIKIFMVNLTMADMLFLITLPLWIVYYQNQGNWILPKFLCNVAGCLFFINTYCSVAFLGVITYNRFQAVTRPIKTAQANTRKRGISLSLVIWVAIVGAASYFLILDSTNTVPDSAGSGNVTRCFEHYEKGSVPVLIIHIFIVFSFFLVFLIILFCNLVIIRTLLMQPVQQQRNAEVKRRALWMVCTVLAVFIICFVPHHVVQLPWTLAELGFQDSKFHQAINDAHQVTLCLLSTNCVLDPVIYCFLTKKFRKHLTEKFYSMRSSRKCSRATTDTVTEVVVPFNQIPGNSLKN

With `CNC(C)Cc1ccc2c(c1)OCO2` (stereo not shown) [MDMA, 3,4-Methylenedioxy methamphetamine, reference compound] the “% Agonist Activity” value (168 GPCRs [1]; Conc 1 uM) was 0.6%, the “% Antagonist Activity” value (168 GPCRs [1]; Conc 1 uM) was 11.4% and the “% Agonist Activity” value (168 GPCRs [1]; Conc 10 uM) was 0.4%. The “% Antagonist Activity” value (168 GPCRs [1]; Conc 10 uM) was 12.1%, the “% Agonist Activity” value (168 GPCRs [2]; BRS3, 1 uM) was 2.6% and the “% Antagonist Activity” value (168 GPCRs [2]; BRS3, 1 uM) was 7.9%. For the same compound, the “% Agonist Activity” value (168 GPCRs [2]; BRS3, 10 uM) was -3%, the “% Antagonist Activity” value (168 GPCRs [2]; BRS3, 10 uM) was 3.8% and the “% Agonist Activity” value (168 GPCRs [3]; CXCR5, 1 uM) was 2.7%. The “% Antagonist Activity” value (168 GPCRs [3]; CXCR5, 1 uM) was -4.4%, the “% Agonist Activity” value (168 GPCRs [3]; CXCR5, 10 uM) was 1.4% and the “% Antagonist Activity” value (168 GPCRs [3]; CXCR5, 10 uM) was 3.2%. The “% Agonist Activity” value (168 GPCRs [4]; Conc 1 uM) was 0.7%, the “% Antagonist Activity” value (168 GPCRs [4]; Conc 1 uM) was -9.8% and the “% Agonist Activity” value (168 GPCRs [4]; Conc 10 uM) was 1.1%. The “% Antagonist Activity” value (168 GPCRs [4]; Conc 10 uM) was -12.8%, the “% Agonist Activity” value (168 GPCRs [5]; Conc 1 uM) was 0.3% and the “% Antagonist Activity” value (168 GPCRs [5]; Conc 1 uM) was 2.8%. For the same compound, the “% Agonist Activity” value (168 GPCRs [5]; Conc 10 uM) was -0.8%, the “% Antagonist Activity” value (168 GPCRs [5]; Conc 10 uM) was 1.2% and the “% Agonist Activity” value (168 GPCRs [6]; C3AR1, 1 uM) was 0.2%. For the same compound, the “% Antagonist Activity” value (168 GPCRs [6]; C3AR1, 1 uM) was 12.9%, the “% Agonist Activity” value (168 GPCRs [6]; C3AR1, 10 uM) was 0.2% and the “% Antagonist Activity” value (168 GPCRs [6]; C3AR1, 10 uM) was 9.8%. For the same compound, the “% Agonist Activity” value (168 GPCRs [7]; F2RL3, 1 uM) was 10.8%, the “% Antagonist Activity” value (168 GPCRs [7]; F2RL3, 1 uM) was 9.6% and the “% Agonist Activity” value (168 GPCRs [7]; F2RL3, 10 uM) was 8.5%. The “% Antagonist Activity” value (168 GPCRs [7]; F2RL3, 10 uM) was 13.3%, the “% Agonist Activity” value (168 GPCRs [8]; Conc 1 uM) was -1.6% and the “% Antagonist Activity” value (168 GPCRs [8]; Conc 1 uM) was 8.6%. The “% Agonist Activity” value (168 GPCRs [8]; Conc 10 uM) was -0.6% and the “% Antagonist Activity” value (168 GPCRs [8]; Conc 10 uM) was 5.9%.
`CNC(C)C(=O)c1ccc2c(c1)OCO2` (stereo not shown) [methylone] was tested, and the “% Agonist Activity” value (168 GPCRs [1]; Conc 1 uM) was -1.3%, the “% Antagonist Activity” value (168 GPCRs [1]; Conc 1 uM) was 2% and the “% Agonist Activity” value (168 GPCRs [1]; Conc 10 uM) was -2.6%. The “% Antagonist Activity” value (168 GPCRs [1]; Conc 10 uM) was -6.7%, the “% Agonist Activity” value (168 GPCRs [2]; BRS3, 1 uM) was 4.5% and the “% Antagonist Activity” value (168 GPCRs [2]; BRS3, 1 uM) was 18.3%. For the same compound, the “% Agonist Activity” value (168 GPCRs [2]; BRS3, 10 uM) was -4.6%, the “% Antagonist Activity” value (168 GPCRs [2]; BRS3, 10 uM) was 10.1% and the “% Agonist Activity” value (168 GPCRs [3]; CXCR5, 1 uM) was 2.5%. The “% Antagonist Activity” value (168 GPCRs [3]; CXCR5, 1 uM) was -4.3%, the “% Agonist Activity” value (168 GPCRs [3]; CXCR5, 10 uM) was 1.4% and the “% Antagonist Activity” value (168 GPCRs [3]; CXCR5, 10 uM) was -15.1%. For the same compound, the “% Agonist Activity” value (168 GPCRs [4]; Conc 1 uM) was -1.4%, the “% Antagonist Activity” value (168 GPCRs [4]; Conc 1 uM) was 12.7% and the “% Agonist Activity” value (168 GPCRs [4]; Conc 10 uM) was -3.1%. For the same compound, the “% Antagonist Activity” value (168 GPCRs [4]; Conc 10 uM) was -4.4%, the “% Agonist Activity” value (168 GPCRs [5]; Conc 1 uM) was 2.2% and the “% Antagonist Activity” value (168 GPCRs [5]; Conc 1 uM) was 14.5%. The “% Agonist Activity” value (168 GPCRs [5]; Conc 10 uM) was -4.1%, the “% Antagonist Activity” value (168 GPCRs [5]; Conc 10 uM) was 14.9% and the “% Agonist Activity” value (168 GPCRs [6]; C3AR1, 1 uM) was -0.1%. For the same compound, the “% Antagonist Activity” value (168 GPCRs [6]; C3AR1, 1 uM) was 2.5%, the “% Agonist Activity” value (168 GPCRs [6]; C3AR1, 10 uM) was 0% and the “% Antagonist Activity” value (168 GPCRs [6]; C3AR1, 10 uM) was 0.3%. The “% Agonist Activity” value (168 GPCRs [7]; F2RL3, 1 uM) was 4.3%, the “% Antagonist Activity” value (168 GPCRs [7]; F2RL3, 1 uM) was -11.3% and the “% Agonist Activity” value (168 GPCRs [7]; F2RL3, 10 uM) was 7%. For the same compound, the “% Antagonist Activity” value (168 GPCRs [7]; F2RL3, 10 uM) was -6.9%, the “% Agonist Activity” value (168 GPCRs [8]; Conc 1 uM) was -1.5% and the “% Antagonist Activity” value (168 GPCRs [8]; Conc 1 uM) was -14.8%. For the same compound, the “% Agonist Activity” value (168 GPCRs [8]; Conc 10 uM) was -2.5% and the “% Antagonist Activity” value (168 GPCRs [8]; Conc 10 uM) was -10.4%.
